The record followed here is US5462926A (Biomeasure, Inc., priority 1993, dated 1995).

The IC50 is the midpoint of a concentration-inhibition curve.

In assay [1] the target is T1, rat NMB receptor (Rattus norvegicus, UniProt P24053).
T1 construct: a full length NMB-preferring bombesin receptor clone generated from rat esophagus; expressed in transfected cells
T1 sequence (P24053 1-390): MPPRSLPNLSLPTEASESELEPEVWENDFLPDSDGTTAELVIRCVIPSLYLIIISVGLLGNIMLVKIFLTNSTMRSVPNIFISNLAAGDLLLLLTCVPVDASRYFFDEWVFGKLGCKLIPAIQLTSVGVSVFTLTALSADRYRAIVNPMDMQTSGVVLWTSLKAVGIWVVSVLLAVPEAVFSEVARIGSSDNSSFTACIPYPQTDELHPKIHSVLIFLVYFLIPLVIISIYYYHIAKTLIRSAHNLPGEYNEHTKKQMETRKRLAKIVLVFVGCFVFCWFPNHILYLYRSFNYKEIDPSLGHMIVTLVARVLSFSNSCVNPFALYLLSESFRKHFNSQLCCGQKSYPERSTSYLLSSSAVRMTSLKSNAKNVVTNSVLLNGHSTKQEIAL
In words: Binding of 125I-[D-Tyr0]NMB to NMB-R transfected BALB 3T3 cells. Conditions: for fold decrease in NMB receptor affinity compared with cyclo SS-octa (#1): structure-function comparison from Table 1.

Assay [2] deals with T2, somatostatin receptors (Rattus norvegicus, UniProt P30680).
T2 construct: endogenous in cells; host or cells: rat AR 42J pancreatic acinar tumor cell membranes
T2 sequence (P30680 whole entry): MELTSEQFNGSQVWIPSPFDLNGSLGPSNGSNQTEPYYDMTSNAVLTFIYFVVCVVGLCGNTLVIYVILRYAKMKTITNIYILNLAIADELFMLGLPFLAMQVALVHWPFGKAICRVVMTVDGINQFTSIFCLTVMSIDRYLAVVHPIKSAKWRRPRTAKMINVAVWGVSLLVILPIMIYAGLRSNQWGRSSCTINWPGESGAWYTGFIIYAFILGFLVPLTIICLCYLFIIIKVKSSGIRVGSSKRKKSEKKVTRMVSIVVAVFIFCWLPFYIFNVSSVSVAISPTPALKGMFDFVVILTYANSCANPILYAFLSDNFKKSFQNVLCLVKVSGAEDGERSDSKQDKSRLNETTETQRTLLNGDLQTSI
In words: Somatostatin membrane receptor assay, 125I-[Tyr11]SS-14, AR 42J cell membranes. Format: binding. The settings on record: Cheng method; table prints no unit (b360 gives nM for a Table 4 value); read-out: affinity, 125I-[Tyr11]SS-14, AR 42J Cell Membranes (somatostatin receptors).

The target of assay [3] is T3, NMB receptor (Rattus norvegicus, UniProt P24053).
T3 sequence (P24053 1-390): T1 sequence (P24053 1-390)
Kind of assay: [3H]inositol phosphates in NMB-R transfected cells (alone or NMB-stimulated). Format: cell-based. More on the design: a full length NMB-preferring bombesin receptor clone generated from rat esophagus; expressed in transfected cells. The settings on record: NMB-R transfected cells; for IC50 / effect at 10 μM on NMB-stimulated increase in [3H]IP: 3 nM NMB; for [3H]IP, analog Alone (10 μM): analog 10 μM alone, control 13 ± 3; for [3H]IP, analog Plus NMB (3 nM): analog 10 μM plus NMB 3 nM, NMB without analog 186 ± 58. The method, boiled down: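 BALB 3T3 cells stably expressing rat NMB receptor, labelled 48 h at 37 °C with 100 μCi/ml myo-[3H]inositol, preincubated 15 min in buffer with 10 mM LiCl, then exposed 60 min at 37 °C to agonists or to 3 nM NMB plus antagonists. Total [3H]inositol phosphates isolated by anion-exchange chromatography.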

For assay [4], the target named is GRP receptor (Rattus norvegicus, UniProt P52500). Kind of assay: Amylase release from rat pancreatic acini (alone or Bn-stimulated). The class given is cell-based. More on the design: from tissue; host or cells: dispersed pancreatic acini. Conditions: for Amylase Release, analog Alone (10 μM): analog 10 μM alone, control 4 ± 1; for Amylase Release, analog Plus Bn (0.3 nM): analog 10 μM plus Bn 0.3 nM, Bn without analog 15 ± 1; for IC50: read-out: IC50 Amylase Release, GRP Receptor, Rat Pancreatic Acini. The method, boiled down: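 Rat pancreatic acini incubated 30 min at 37° C without additives or with somatostatin octapeptide analog, Bn, NMB or combinations. Amylase release expressed as percent of total cellular amylase released during incubation; for inhibition, somatostatin analog (10 μM) tested on 0.3 nM Bn-stimulated release.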
Sequence of GRP receptor (P52500 whole entry): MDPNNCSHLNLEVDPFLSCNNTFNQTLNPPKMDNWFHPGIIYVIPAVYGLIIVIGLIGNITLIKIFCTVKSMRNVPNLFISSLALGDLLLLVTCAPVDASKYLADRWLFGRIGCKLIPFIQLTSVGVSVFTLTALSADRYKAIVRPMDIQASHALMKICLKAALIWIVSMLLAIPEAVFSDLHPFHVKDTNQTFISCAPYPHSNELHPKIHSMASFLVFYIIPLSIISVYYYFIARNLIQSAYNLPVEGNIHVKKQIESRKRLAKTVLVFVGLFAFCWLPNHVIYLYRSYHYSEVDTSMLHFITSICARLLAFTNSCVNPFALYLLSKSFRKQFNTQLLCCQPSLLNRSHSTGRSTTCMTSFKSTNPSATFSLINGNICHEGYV

Assay [5] deals with T4, NMB receptors on C-6 cells (Rattus norvegicus, UniProt P24053).
T4 construct: endogenous in cells; host or cells: rat glioblastoma C-6 cells
T4 sequence (P24053 1-390): T1 sequence (P24053 1-390)
Kind of assay: Binding of 125I-[D-Tyr0]NMB to C-6 glioblastoma cells. The settings on record: Ki by Cheng method, read-out: Ki 125I-NMB Binding, NMB Receptor, C-6 Cells. Summed up:
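Disaggregated rat C-6 glioblastoma cells (15×10^6/ml) or NMB-R-transfected cells (2×10^6/ml) were incubated with 75 pM 125I-[D-Tyr0]NMB for 60 min at 22° C in HEPES binding buffer with 0.2% BSA, pH 7.4. Values are saturable binding: total minus binding in the presence of excess unlabelled NMB.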

Setting [6] is: NMB-R transfected BALB 3T3 cells, Ki by Cheng method, read-out: Ki 125I-NMB Binding, NMB Receptor, Transfected Cells.
Setting [7] is: read-out: IC50 NMB-stimulated [3H]IP, NMB Receptor, Transfected Cells.
Where [8] appears, read: read-out: IC50 NMB-stimulated [3H]IP, Transfected Cells (values in μM).

Where two headings read alike, the source gives them in different places. Where a SMILES comes first, the peptide text is derived from it. Bridges are numbered along the chain shown (N, C = ends). [ ]: non-standard residue; d: D form. 2Nal = N[C@@H](Cc1ccc2ccccc2c1)C(=O)O; d2Nal = N[C@H](Cc1ccc2ccccc2c1)C(=O)O

As to `CC(C)[C@@H]1NC(=O)[C@H](CCCCN)NC(=O)[C@@H](Cc2c[nH]c3ccccc23)NC(=O)[C@H](Cc2ccc(O)cc2)NC(=O)[C@@H](NC(=O)[C@H](N)Cc2c[nH]c3ccccc23)CSSC[C@@H](C(=O)N[C@@H](Cc2ccc3ccccc3c2)C(N)=O)NC1=O` [Analog #12, H2 -D-Trp-Cys-Tyr-D-Trp-Lys-Val-Cys-Nal-NH2] (H-[dW]CY[dW]KVC[2Nal]-NH2; disulfide 2-7), the Ki is 1410 ± 127 nM in assay [1] (setting [6]); 1400 to 2300 nM in assay [1] (NMB-R transfected cells, value or range given for a group, read-out: K1, 125I-NMB binding to NMB-R transfected cells (text)); 3.1 ± 1.6 nM in assay [2]; 1780 ± 109 nM in assay [5]. Further, the “fold by which cyclo SS-octa is more potent than the analog, 125I-NMB binding” value in assay [1] (NMB-R transfected cells) amounted to 9 fold. Besides, the “fold decrease in NMB receptor affinity compared with cyclo SS-octa (#1)” value (shortened to “fold decrease in NMB receptor affinity”) in assay [1] is listed as 4 to 7 fold. For the same compound, the IC50 in assay [3] (setting [7]) was 4.69 ± 0.927 µM; in assay [4] it was above 10000 nM. In assay [3], the “[3H]IP, analog Alone (10 μM)” value is given as 9 ± 2 dym × 10^3. For the same compound, the “[3H]IP, analog Plus NMB (3 nM)” value in assay [3] came out at 43 ± 2 dym × 10^3. Moreover, the “Amylase Release, analog Alone (10 μM)” value in assay [4] came out at 3 ± 1 % total. For the same compound, the “Amylase Release, analog Plus Bn (0.3 nM)” value in assay [4] came to 13 ± 1 % total.
In the case of `NCCCC[C@@H]1NC(=O)[C@@H](Cc2c[nH]c3ccccc23)NC(=O)[C@H](Cc2ccc(O)cc2)NC(=O)[C@@H](NC(=O)[C@H](N)Cc2ccc3ccccc3c2)CSSC[C@@H](C(=O)N[C@@H](Cc2ccc3ccccc3c2)C(N)=O)NC(=O)[C@H](Cc2ccccc2)NC1=O` [Analog #13, H2 -D-Nal-Cys-Tyr-D-Trp-Lys-Phe-Cys-Nal-NH2] (H-[d2Nal]CY[dW]KFC[2Nal]-NH2; disulfide 2-7), in assay [1] (setting [6]), the Ki amounted to 397 ± 72 nM. Also, the “fold by which cyclo SS-octa is more potent than the analog, 125I-NMB binding” value in assay [1] (NMB-R transfected cells) is given as 2 fold. Besides, the “fold decrease in NMB receptor affinity” value in assay [1] is listed as 2 to 3 fold. For the same compound, the Ki in assay [2] is 194 ± 27 nM. Moreover, the IC50 in assay [3] (setting [7]) stood at 1.17 ± 0.114 µM. Moreover, in assay [3] (setting [8]), the IC50 fell in the range of 1.2 to 1.8 µM. In assay [3], the “effect at 10 μM on NMB-stimulated increase in [3H]IP” value is given as “completely inhibited”; the “[3H]IP, analog Alone (10 μM)” value turned out to be 10 ± 1 dym × 10^3; the “[3H]IP, analog Plus NMB (3 nM)” value is listed as 9 ± 4 dym × 10^3. Also, in assay [4], the “Amylase Release, analog Alone (10 μM)” value is 3 ± 1 % total; the “Amylase Release, analog Plus Bn (0.3 nM)” value came out at 14 ± 1 % total; the IC50 was above 10000 nM. The Ki in assay [5] was determined as 213 ± 13 nM.
`CC(C)[C@@H]1NC(=O)[C@H](Cc2c[nH]cn2)NC(=O)[C@@H](Cc2c[nH]c3ccccc23)NC(=O)[C@H](Cc2ccc(O)cc2)NC(=O)[C@@H](NC(=O)[C@H](N)Cc2ccc3ccccc3c2)CSSC[C@@H](C(=O)N[C@@H](Cc2ccc3ccccc3c2)C(N)=O)NC1=O` [Analog #14] (H-[d2Nal]CY[dW]HVC[2Nal]-NH2; disulfide 2-7; N-terminus assumed): the Ki in assay [1] (setting [6]) amounted to 9860 ± 1290 nM. Further, the “fold by which cyclo SS-octa is more potent than the analog, 125I-NMB binding” value in assay [1] (NMB-R transfected cells) stood at 45 fold. Also, in assay [1], the “fold decrease in NMB receptor affinity” value was found to be 50 fold. Moreover, the Ki in assay [2] amounted to 1870 ± 30 nM. Moreover, in assay [3] (setting [7]), the IC50 came to 11.9 ± 1.83 µM. Moreover, in assay [3], the “[3H]IP, analog Alone (10 μM)” value was 8 ± 1 dym × 10^3 and the “[3H]IP, analog Plus NMB (3 nM)” value came out at 97 ± 7 dym × 10^3. Also, in assay [4], the “Amylase Release, analog Alone (10 μM)” value is on record as 2 ± 1 % total; the “Amylase Release, analog Plus Bn (0.3 nM)” value is recorded as 13 ± 1 % total; the concentration for half-maximal inhibition (IC50) is above 10000 nM. The Ki in assay [5] amounted to 4940 ± 930 nM.
On to `CC(C)[C@@H]1NC(=O)[C@H](CCCCN)NC(=O)[C@@H](Cc2ccc3ccccc3c2)NC(=O)[C@H](Cc2ccc(O)cc2)NC(=O)[C@@H](NC(=O)[C@H](N)Cc2ccc3ccccc3c2)CSSC[C@@H](C(=O)N[C@@H](Cc2ccc3ccccc3c2)C(N)=O)NC1=O` [Analog #17, H2 -D-Nal-Cys-Tyr-D-Nal-Lys-Val-Cys-Nal-NH2] (H-[d2Nal]CY[d2Nal]KVC[2Nal]-NH2; disulfide 2-7), for which, in assay [1] (setting [6]), the Ki was 399 ± 68 nM. Also, the “fold by which cyclo SS-octa is more potent than the analog, 125I-NMB binding” value in assay [1] (NMB-R transfected cells) is 2 fold. Also, in assay [2], the Ki was determined as 570 ± 180 nM. In addition, the IC50 in assay [3] (setting [7]) was 1.78 ± 0.295 µM. Further, the IC50 in assay [3] (setting [8]) fell in the range of 1.2 to 1.8 µM. Moreover, in assay [3], the “effect at 10 μM on NMB-stimulated increase in [3H]IP” value is “completely inhibited”; the “[3H]IP, analog Alone (10 μM)” value was determined as 12 ± 4 dym × 10^3; the “[3H]IP, analog Plus NMB (3 nM)” value was determined as 15 ± 2 dym × 10^3. Further, in assay [4], the “Amylase Release, analog Alone (10 μM)” value is on record as 4 ± 2 % total; the “Amylase Release, analog Plus Bn (0.3 nM)” value came to 19 ± 1 % total; the 50% inhibitory concentration (IC50) is above 10000 nM. Also, the Ki in assay [5] came to 313 ± 33 nM.
